In brackets after ≈: the same amount, converted by molar mass.
Key:
L6 = assay: Cytotoxicity against rat L6 cells; format: cell-based
Plasmodium falciparum = assay: Antiplasmodial activity against Plasmodium falciparum NF54 erythrocytic stages assessed as parasite growth inhibition preincubated overnight followed by [G-3H]hypoxanthine addition and measured after 24 hrs by liquid scintillation counting method; format: functional, organism-based
[1] = Selectivity index, ratio of IC50 for rat L6 cells to IC50 for Plasmodium falciparum NF54; format: toxicity; conditions: read-out: Ratio IC50
[2] = tested on: Mycolicibacterium smegmatis; assay: Antimycobacterial activity against Mycobacterium smegmatis mc2 155 ATCC 700084 assessed as inhibition of visible growth of bacteria by MTT assay; format: functional
[3] = tested on: Mycolicibacterium smegmatis; assay: Antimycobacterial activity against Mycobacterium smegmatis mc2 155 ATCC 700084 assessed as fold reduction in EtBr MIC at half MIC concentration; format: functional
[4] = tested on: Trypanosoma brucei rhodesiense; assay: Trypanocidal activity against Trypanosoma brucei rhodesiense STIB900 trypomastigotes incubated for 72 hrs by Alamar blue assay; format: functional, organism-based; conditions: STIB900, 72 h
[5] = Selectivity index, ratio of IC50 for rat L6 cells to IC50 for Trypanosoma brucei rhodesiense STIB900 trypomastigotes; format: toxicity; conditions: read-out: Ratio IC50

Compound	IC50 (L6) [µM]	IC50 (Plasmodium falciparum; read-out: IC50) [µM]	IC50 (Plasmodium falciparum; read-out: pIC50 (converted)) [µM]	selectivity ratio [1]	MIC [2] [mg/L]	fold change (FC) [3]	IC50 ([4]; read-out: IC50) [µM]	IC50 ([4]; read-out: pIC50 (converted)) [µM]	selectivity ratio [5]
O=C1C=C(c2ccccc2)C(=O)c2ccccc21	19.4	11	11	1.8	8 (≈ 34.2 µM)	4	0.06	0.055	323
Cc1ccc(C2=CC(=O)c3ccccc3C2=O)cc1	7.26	3.86	3.89	1.9	32 (≈ 129 µM)	2	0.08	0.0759	90.8
O=C1C=C(c2ccc(Cl)nc2)C(=O)c2ccccc21	32.4	0.07	0.0661	463	32 (≈ 119 µM)	128	2.2	2.19	14.7
O=C1C=C(c2ccc(F)cc2)C(=O)c2ccccc21	9.06	1.81	1.82	5	128 (≈ 507 µM)	>128	0.22	0.219	41.2
N#Cc1ccc(C2=CC(=O)c3ccccc3C2=O)cc1	7.21	1.11	1.1	6.5	64 (≈ 247 µM)	>128	0.28	0.275	25.8
O=C1C=C(c2cc(F)cc(F)c2)C(=O)c2ccccc21	9.67	0.59	0.589	16.4	> 128	4	0.24	0.24	40.3
O=C1C=C(c2cnc3ccccc3c2)C(=O)c2ccccc21	5.64	0.45	0.447	12.5	8 (≈ 28 µM)	8	0.22	0.224	25.6
CS(=O)(=O)Nc1cccc(C2=CC(=O)c3ccccc3C2=O)c1	9.25	2.56	2.57	3.6	> 128	128	0.2	0.2	46.3
O=C1C=C(c2ccc(Cl)cc2)C(=O)c2ccccc21	8.96	2.64	2.63	3.4	16 (≈ 59.5 µM)	>128	0.22	0.224	40.7
O=C1C=C(c2cnc(Cl)nc2)C(=O)c2ccccc21	1.02	0.47	0.468	2.2	4 (≈ 14.8 µM)	2	0.13	0.129	7.8
O=C1C=C(c2cc3ccccc3o2)C(=O)c2ccccc21	209	25	25.1	8.4	> 128	2	1.36	1.35	154
O=C1C=C(c2ccc(F)nc2)C(=O)c2ccccc21	2.1	0.11	0.115	19.1	16 (≈ 63.2 µM)	>128	0.14	0.138	15
O=C1C=C(c2ccc(C(=O)N3CCCCC3)cc2)C(=O)c2ccccc21	9.71	2.37	2.34	4.1	32 (≈ 92.6 µM)	8	0.75	0.741	12.9
O=C1C=C(c2ccc(C(F)(F)F)cc2)C(=O)c2ccccc21	15.1	1.08	1.07	14	128 (≈ 423 µM)	4	0.08	0.0759	189
CC(C)c1ccc(C2=CC(=O)c3ccccc3C2=O)cc1	20.4	2.96	2.95	6.9	64 (≈ 232 µM)	4	1.45	1.45	14.1
O=C1C=C(c2ccco2)C(=O)c2ccccc21	7.44	2.07	2.09	3.6	128 (≈ 571 µM)	2	0.13	0.129	57.2
O=C1C=C(c2cccc(OC(F)(F)F)c2)C(=O)c2ccccc21	23.2	0.89	0.891	26.1	64 (≈ 201 µM)	128	1.8	1.78	12.9
O=C1C=C(c2ccc(OC(F)(F)F)cc2)C(=O)c2ccccc21	16.6	3.87	3.89	4.3	16 (≈ 50.3 µM)	128	2.36	2.34	7
CC[n+]1c(-c2ccccc2)c2cc(N)ccc2c2ccc(N)cc21.[Br-] [HOMIDIUM BROMIDE]					8				
NNC(=O)c1ccncc1 [ISONIAZID]					4 (≈ 29.2 µM)				
COc1cc([C@@H]2c3cc4c(cc3[C@H](O)[C@H]3COC(=O)[C@H]23)OCO4)cc(OC)c1OC [PODOFILOX]	0.024								

Reference: ChEMBL document CHEMBL4765460, “Palladium-catalysed synthesis of arylnaphthoquinones as antiprotozoal and antimycobacterial agents” (Eur J Med Chem, 2020)
